# Measured values published in patent publication US20250052985A1, “SYSTEM AND METHOD FOR QUANTITATIVE PHASE IMAGING FOR MULTI-PARAMETRIC SCREENING OF TUMOR THERAPY RESPONSE” (UNIVERSITY OF UTAH RESEARCH FOUNDATION, priority 2023, published 2025).
# Where “and” joins values, the source holds several entries; their conditions need not be identical. Equal entries are not always repeated.
# Legend:
# BT-474 cells [1] = assay: cells; details: for Hill Slope: BT-474, Hill fit; for ToR 20 μM: time of response at 20 μM; for EC50: Homo sapiens
# From the text: (§1) In some embodiments, breast cancer cell lines are imaged, representing diverse clinical subtypes, summarized in Table 2 below, using a QPI microscope (FIG. 1A) based on differential phase contrast (DPC) microscopy and phase reconstruction via a QPI microscope system. DPC is used for image acquisition and phase reconstruction because DPC's flexible design may be customized for high throughput phase measurements. […] As illustrated in the embodiment of FIG. 1A, a QPI microscope system 100 conducts assays in a 96-well plate (e.g., a well-plate 105) with 6-point dose response curves and up to five therapies in triplicate including solvent controls, summarized in Table 4 below. As described below, in reference to FIG. 1A, a growth response of cells is measured noninvasively using QPI via a QPI microscope system 110 before being assayed using a CTG reader 115.
# (§2) FIG. 1B illustrates a timeline plot 200 showing two plates (e.g., two, separate well-plates 105) set up in parallel to measure cell viability. With reference to FIG. 1B, two plates are set-up simultaneously for each experiment. A first plate 205 is incubated for 27 hours (h) post drug exposure prior to CTG analysis (3 h equilibration+24 h of imaging), which measures cell adenosine triphosphate (ATP) content as a surrogate for cell viability. A second plate 210 is imaged for 72 h after 3 h equilibration (e.g., 75 h) and followed by CTG. […] The imaging locations are imaged for 72 h, as shown by images 1700-1715 of FIG. 7.
# (§3) In some embodiments, a dose-dependent change in growth, as indicated by a change in the rate of mass accumulation or loss, is a parameter that can be extracted from QPI dose-response data. […] Individual specific growth rate measurements are indicated by points in the distribution of the graph 1200 of FIG. 2A. Blue is indicative of the DMSO control and red is indicative of doxorubicin. The black outline is a kernel density function fit to the distribution of specific growth rates for each condition (e.g., *p<0.05, **p<0.01). In some embodiments, the average SGR of each condition is fit to a sigmoid dose-response curve using a Hill equation. For example, computed logistic fit parameters using a 4-parameter Hill model via the QPI microscope system 110 for all conditions are summarized in Tables 5-8 below. To determine if there is a response, as illustrated by FIG. 2B, the QPI microscope system 110 tests goodness of fit, adjusts for degrees of freedom using an F-test at significance p<0.01 by comparison to a flat line, as an indicator of no response. For cases with a better fit to the Hill equation, the 4-parameter Hill curve may be used by the QPI microscope system 110 to determine the EC50, a measure of sensitivity to therapy because it represents the effective concentration at which 50% of the cells respond to therapy, as illustrated by FIG. 10. […] A 4-parameter Hill curve is fit to each dose response plot to extract the depth of response and EC50 for each cell/drug pair. A flat line represents no response due to failure of the F-test to reject the null hypothesis that the logistic fit is indistinguishable from a flat line. […] Each color indicates a different drug or therapy used.
# MCF-7 cells [2] = assay: cells; details: for Max Asymptote / Min Asymptote: MCF-7, 4-parameter Hill fit of mean SGR vs concentration, one line per replicate; for Hill Slope: MCF-7, Hill fit; for DoR QPI: depth of response; for ToR 20 μM: time of response at 20 μM
# From the text: as §1, §2, §3
# BT-474 cells [3] = assay: CellTiter-Glo (CTG) ATP viability assay, BT-474; type: cell-based; details: for Min Asymptote: BT-474, Hill fit of luminescence normalized to solvent control, one line per replicate; for EC50: Homo sapiens
# Protocol: (§4) CTG (e.g., read by the CTG reader 115) is a cell viability assay that quantifies the amount of ATP present at the end of an experiment as an indicator of the number of live cells. The electronic controller 155 measures ATP content in each condition as a readout by a luminescent signal, which is normalized by the luminescence of the control (e.g., a control well) to determine cell viability relative to on-plate controls. In some embodiments, the CTG assay is performed by first removing 100 μL of media from each well on the well-plate 105, which is then replaced with an equal amount of CellTiter-Glo reagent (e.g., Promega, G7572). Assayed plates may be shaken at 500 RPM for 20 minutes and allowed to rest for 10 minutes. In some instances, 100 μL of volume from each well is transferred to a white 96-well plate (e.g., Perkin Elmer, 6005680). The electronic controller 155 collects luminescence data from each well using an Envision plate reader (e.g., Perkin Elmer) and normalized against the solvent control to measure ATP content. The electronic controller 155 fits a 4-parameter hill curve to the dose response to determine the EC50 and depth of response.
# [4] = tested on: primary tumor cells (Patient #1); assay: QPI on primary cells after two-week expansion, Patient #1; type: cell-based
# Protocol: In some embodiments, the QPI microscope system 110 applies multiparametric QPI to primary cells from two clinical samples stored in cell bank at, for example, the Huntsman Cancer Institute plated after thawing from liquid nitrogen and CD45+ depleted to reduce the number of immune cells, as shown in FIG. 26.
# For example, the primary cells are plated as a 2D monolayer in Clever's complete medium in a 96 well plate (e.g., the well-plate 105) and are allowed to acclimate to cell culture conditions for 18 h prior to dosing with treatments assigned to each patient by a physician. […] The image 3600 is a QPI image of primary cells from a direct from thaw patient derived sample. […] The graph 3610 is a histogram of cell mass used to computationally filter, using the electronic controller 155, for low mass cells (shown in red in the image 3600 and the graph 3605). By using a cutoff between the peaks at, for example, 72 pg, low mass cells can be isolated that are not growing and remove such cells from analysis. […] Using this cutoff, the electronic controller 155 measures the dose response for cells in each condition to determine the EC50 and DoR for each condition studied for the primary cells, as shown in the graph 3615. The graph 3615 is a dose response plot for primary cells treated with therapies assigned to the patient by a physician. […] In some embodiments, the electronic controller 155 determines a drug response in cells from patient derived samples. For example, the electronic controller 155 determines the drug response in therapy treatment samples from patient derived samples.
# In some embodiments, both samples are expanded from primary cells in 2D culture using optimized ex vivo culture conditions for 2 weeks, changing media every 3 days to further purify the tumor cells, as shown in a workflow 3700 of FIG. 27.
# MDA-MB-231 cells = assay: Quantitative phase imaging (QPI) growth response, MDA-MB-231; type: cell-based; parameters: DoR QPI: scale not given here; ToR 20 μM: unit not given here
# From the text: as §1, §2, §3
# MCF-7 cells [5] = assay: CellTiter-Glo (CTG) ATP viability assay, MCF-7; type: cell-based
# Protocol: as §4
# [6] = 72 h QPI, BT-474, 4-parameter Hill fit of mean SGR vs concentration, one line per replicate
# [7] = 72 h QPI, MDA-MB-231, 4-parameter Hill fit of mean SGR vs concentration, one line per replicate
compound,measurement,setting,value
CS(=O)(=O)CCNCc1ccc(-c2ccc3ncnc(Nc4ccc(OCc5cccc(F)c5)c(Cl)c4)c3c2)o1 [Lapatinib],type of response (cytostatic/cytotoxic),BT-474 cells [1],cytotoxic response
same,Max Asymptote,"BT-474 cells [1]; 24 h QPI, BT-474, 4-parameter Hill fit of mean SGR vs concentration, one line per replicate",0.009114 and 0.01239 and 0.01012
same,Hill Slope,BT-474 cells [1]; 24 h QPI,1.0728 and 1.0622 and 0.7683
same,Max Asymptote,BT-474 cells [1]; [6],−0.005233 and −0.002968 and −0.002717
same,Min Asymptote,BT-474 cells [1]; [6],0.008681 and 0.009519 and 0.009646
same,Hill Slope,BT-474 cells [1]; 72 h QPI,0.8265 and 1.1159 and 1.0735
same,growth rate and heterogeneity as concentration increases,"BT-474 cells [1]; BT-474, FIG. 22",decrease in growth rate and heterogeneity
same,DoR QPI,"BT-474 cells [1]; BT-474 cell line, depth of response, QPI",1.4
same,ToR 20 μM,BT-474 cells [1]; BT-474 cell line,−1.0616
same,ToR faster than in MCF-7,BT-474 cells [1]; BT-474 vs MCF-7,60 h
same,decrease in heterogeneity relative to MCF-7,BT-474 cells [1]; BT-474 vs MCF-7,30%
same,EC50,"BT-474 cells [1]; BT-474, BT-474, QPI",~1500 nM
same,EC50,"BT-474 cells [1]; BT-474, read-out: EC50, QPI, BT-474 cell line, QPI growth rate",1600 nM
same,EC50,"BT-474 cells [1]; BT-474, read-out: EC50, SD, BT-474 cell line, EC50 of the standard deviation",1650 nM
same,type of response (cytostatic/cytotoxic),MCF-7 cells [2],cytostatic response
same,Max Asymptote,MCF-7 cells [2]; 24 h QPI,0.02919
same,Min Asymptote,MCF-7 cells [2]; 24 h QPI,0.0206
same,Hill Slope,MCF-7 cells [2]; 24 h QPI,1.4871
same,Max Asymptote,MCF-7 cells [2]; 72 h QPI,0.01659
same,Min Asymptote,MCF-7 cells [2]; 72 h QPI,0.02661
same,Hill Slope,MCF-7 cells [2]; 72 h QPI,1.4826
same,EC50,"MCF-7 cells [2]; Homo sapiens, MCF7, 24 h, read-out: log10(EC50), 24 h QPI, MCF-7, Hill fit (converted), EC50 in μM per Table 1",1.92 µM
same,EC50,"MCF-7 cells [2]; Homo sapiens, MCF7, 72 h, read-out: log10(EC50), 72 h QPI, MCF-7, Hill fit (converted), EC50 in μM per Table 1",1.8 µM
same,EC50,"MCF-7 cells [2]; Homo sapiens, MCF7, MCF-7, QPI",~1.5 µM
same,EC50,"MCF-7 cells [2]; Homo sapiens, MCF7, read-out: EC50, QPI, MCF-7 cell line, QPI growth rate",1.5 µM
same,DoR QPI,MCF-7 cells [2]; MCF-7 cell line,0.4
same,ToR 20 μM,MCF-7 cells [2]; MCF-7 cell line,38.2
same,Hill Slope,"BT-474 cells [3]; 24 h CTG, BT-474, Hill fit",0.4575
same,Min Asymptote,BT-474 cells [3]; 24 h CTG,0.2926
same,Hill Slope,"BT-474 cells [3]; 72 h CTG, BT-474, Hill fit",0.6736 and 1.021
same,log10(EC50),"BT-474 cells [3]; 72 h CTG, BT-474, Hill fit",0.04318
same,Min Asymptote,BT-474 cells [3]; 72 h CTG,0.3102 and 0.4062 (2×)
same,DoR CTG,"BT-474 cells [3]; BT-474 cell line, depth of response, CellTiter-Glo",0.6
same,EC50,"BT-474 cells [3]; BT-474, 24 h, 24 h CTG, BT-474, Hill fit, read-out: log10(EC50) (converted)",165000 nM
same,EC50,"BT-474 cells [3]; BT-474, BT-474 cell line, CellTiter-Glo, read-out: EC50, CTG",1700 nM
Nc1ccn([C@@H]2O[C@H](CO)[C@@H](O)C2(F)F)c(=O)n1 [gemcitabine],EC50 compared with eribulin,[4]; Patient #1,lower EC50 than eribulin
N.N.O=C([O-])C1(C(=O)[O-])CCC1.[Pt+2] [Carboplatin],ToR 20 μM,BT-474 cells [1]; BT-474 cell line,38.7
same,Max Asymptote,MCF-7 cells [2]; 72 h QPI,0.007047 and 0.01142
same,Min Asymptote,MCF-7 cells [2]; 72 h QPI,0.01994 and 0.02292
same,Hill Slope,MCF-7 cells [2]; 72 h QPI,3.7715 and 2.34
same,DoR QPI,MCF-7 cells [2]; MCF-7 cell line,0.6
same,ToR 20 μM,MCF-7 cells [2]; MCF-7 cell line,18.1
same,EC50,"MCF-7 cells [2]; read-out: EC50, QPI, MCF-7 cell line, QPI growth rate",14.2 µM
same,Max Asymptote,MDA-MB-231 cells; [7],0.01609 and 0.02303 and 0.02092
same,Min Asymptote,MDA-MB-231 cells; [7],0.02861 and 0.03045 and 0.02714
same,growth rate and heterogeneity over time,"MDA-MB-231 cells; MDA-MB-231, 20 μM",decrease in growth rate with little effect on heterogeneity relative to the control
same,growth rate and heterogeneity as concentration increases,"MDA-MB-231 cells; MDA-MB-231, FIG. 22",decrease in growth rate and heterogencity simultaneously
same,EC50,"MDA-MB-231 cells; MDA-MB-231 cell line, QPI growth rate, read-out: EC50, QPI",9100 nM
same,DoR QPI,"MDA-MB-231 cells; MDA-MB-231 cell line, depth of response, QPI",0.3
same,ToR 20 μM,"MDA-MB-231 cells; MDA-MB-231 cell line, time of response at 20 μM",18.3
same,Hill Slope,"MCF-7 cells [5]; 72 h CTG, MCF-7, Hill fit",3.126 and 5.114
same,log10(EC50),"MCF-7 cells [5]; 72 h CTG, MCF-7, Hill fit",−1.201 and −1.172
same,Min Asymptote,"MCF-7 cells [5]; 72 h CTG, MCF-7, Hill fit of luminescence normalized to solvent control, one line per replicate",0.5048 (2×) and 0.6498
same,EC50,"MCF-7 cells [5]; MCF-7 cell line, CellTiter-Glo, read-out: EC50, CTG (converted)",15500 nM
same,DoR CTG,"MCF-7 cells [5]; MCF-7 cell line, depth of response, CellTiter-Glo",0.4
C=C1C[C@@H]2CC[C@@]34C[C@H]5O[C@H]6[C@@H](O3)[C@H]3O[C@H](CC[C@@H]3O[C@H]6[C@H]5O4)CC(=O)C[C@@H]3[C@@H](OC)[C@@H](C[C@H](O)CN)O[C@H]3C[C@H]3O[C@@H](CC[C@@H]1O2)C[C@@H](C)C3=C [eribulin],overall response relative to doxorubicin or gemcitabine,"[4]; Patient #1, concentration just above the EC50, normalized mass over time",lesser overall response
same,DoR relative to the other therapies tested,"[4]; Patient #1, dose response plots",lower DoR
same,growth rate after the first day,"[4]; Patient #1, rest of the experiment",approximately 0.0012 h−1
